Measured values from patent US9068170B2, “Generation of pluripotent stem cells using recombinant proteins” (THE SCRIPPS RESEARCH INSTITUTE, priority 2008, dated 2015).
“Also recorded” adds a separate entry of the source.

Key:
Mouse fibroblasts = test: Induction of pluripotency in mouse fibroblasts by intermittent incubation with poly-Arg transcription factor proteins (Example 1); assay type: cell-based; conditions: added and/or combined during protein treatment of mouse fibroblasts
Method: Mouse fibroblasts were grown in mESC medium supplemented with 8 μg/ml of either Oct4/Sox2/Klf4 or Oct4/Sox2/Klf4/Myc (all proteins comprising poly-Arg as described above) for 6-8 hours, washed, and incubated for 2-3 days in mESC media without the above-listed transcription factors. This (4-12 hours with, 1-3 days without) was repeated a number (1, 2, 3, 4, or more) of times and then the cells were cultures in mESC for two weeks.

[1] = system: mouse fibroblast cells treated with exogenous Oct4/Sox2/Klf4/Myc polypeptides; test: Oct4-positive colonies from an intermediate iPSC clone after small molecule treatment (Example 3, FIG. 5); assay type: cell-based; conditions: combined treatment 0.5 μM PD0325901, 3 μM CHIR99021, 0.5 μM A-83-01, counted 2 weeks after treatment
Method: FIG. 5. […] A comparison of the number of Oct4^+ iPS cell colonies generated from mouse fibroblast cells treated with exogenous Oct4/Sox2/Klf4/Myc polypeptides, and with or without 0.5 μM PD0325901, 3 μM CHIR99021, and 0.5 μM A-83-01. Y-axis represents percentage of Oct4′ colonies within total number of colonies.
We tested the TGFβ receptor inhibitor (A-83-01), MEK inhibitor (PD0325901) and GSK-3 inhibitor (CHIR99021), on mouse fibroblast cells that were treated with exogenous Oct4, Klf4, Sox2 and c-Myc polypeptides, for their effects on reprogramming kinetics and efficiency.
Mouse fibroblasts were grown in mESC growth medium [Knockout DMEM (Invitrogen) supplemented with 10% ES-FBS+10% KSR, 0.1 mM 2-ME, 1% Glutamax, 1% Non-essential amino acids, 1% EmbryoMax ESC Qualified Nucleosides (Millipore), and 10^3 units/ml LIF (ESGRO, Chemicon International)] supplemented with 8 μg/ml of Oct4/Sox2/Klf4/Myc (all four transcription factors are tagged with poly-Arg […]; SEQ ID NO:2) for 4-12 hours, followed by culturing the cells in the absence of the Oct4/Sox2/Klf4/Myc polypeptides for one day. This procedure was repeated 4 times. The cells were then cultured in mESC medium for another two weeks. iPSC clones were detected by colony morphology and expression of pluripotency markers. An intermediate iPSC clone, which expresses ALP but not Oct4 (Oct4), was dissociated with Trypsin-EDTA. The clone was then expanded by continuous culturing with regular mESC medium or medium supplemented with 0.5 μM PD0325901, 3 μM CHIR99021, 0.5 μM A-83-01. The number of Oct4-positive colonies were counted 2 weeks after small molecule treatment (FIG. 5).

reprogramming efficiency = conditions: HDAC inhibitor; Huangfu et al. 2008a; cited from earlier work
cellular reprogramming = test: Enhancement of cellular reprogramming by nuclear receptor ligands; assay type: cell-based

O=C(NOC[C@H](O)CO)c1ccc(F)c(F)c1Nc1ccc(I)cc1F [PD0325901]
effect on efficiency and speed of development of pluripotent cells (Mouse fibroblasts): improved efficiency and speed of development of pluripotent cells | effect on reprogramming efficiency and kinetics / iPSC generation (Oct4-positive colonies) [1]: increases reprogramming efficiency and accelerates reprogramming kinetics | effect on reprogramming efficiency and kinetics / iPSC generation (Oct4-positive colonies) ([1]; listed as PD0320501): enhanced iPSC generation

Cc1c[nH]c(-c2cnc(NCCNc3ccc(C#N)cn3)nc2-c2ccc(Cl)cc2Cl)n1 [CHIR99021]
effect on efficiency and speed of development of pluripotent cells (Mouse fibroblasts): improved efficiency and speed of development of pluripotent cells | effect on reprogramming efficiency and kinetics / iPSC generation (Oct4-positive colonies) [1]: increases reprogramming efficiency and accelerates reprogramming kinetics; also recorded: enhanced iPSC generation

CCCC(CCC)C(=O)O [valproic acid]
effect on reprogramming efficiency (reprogramming efficiency): can significantly improve the reprogramming efficiency

C=C(c1ccc(C(=O)O)cc1)c1cc2c(cc1C)C(C)(C)CCC2(C)C [Bexarotene]
effect on cellular reprogramming (cellular reprogramming; 3 μM): can enhance cellular reprogramming

CC(C)C[C@H](NC(=O)OCC1c2ccccc2-c2ccccc21)C(=O)O [Fmoc-Leu]
effect on cellular reprogramming (cellular reprogramming; 5 μM): can enhance cellular reprogramming

NC(=O)c1ccc(-c2nc(-c3ccc4c(c3)OCO4)c(-c3ccccn3)[nH]2)cc1 [SB431542]
effect on efficiency and speed of development of pluripotent cells (Mouse fibroblasts): improved efficiency and speed of development of pluripotent cells

Cc1cccc(-c2nn(C(=S)Nc3ccccc3)cc2-c2ccnc3ccccc23)n1 [A-83-01, 3-(6-Methyl-2-pyridinyl)-N-phenyl-4-(4-quinolinyl)-1H-pyrazole-1-carbothioamide]
effect on reprogramming efficiency and kinetics / iPSC generation (Oct4-positive colonies) [1]: increases reprogramming efficiency and accelerates reprogramming kinetics; also recorded: enhanced iPSC generation
